Test results: patent publication US20240366606A1, “MRGPRX2 ANTAGONISTS AND USES THEREOF” (The Regents of the University of California, priority 2021, published 2024)
“Also recorded” adds a separate entry of the source. Like-named read-outs stand apart in the source and are kept apart here.

Legend:
MRGPRX2 [1] = target: T1, MRGPRX2 (Homo sapiens (Human), UniProt Q96LB1); assay: FLIPR Ca2+ assay, antagonist mode, tetracycline-inducible MRGPRX2 stable cell line; type: cell-based; settings: for antagonist activity for MRGPRX2: in words, SAR around '1592; for inhibition of substance P stimulated MRGPRX2 activation: EC80 substance P concentration
Protocol: FLIPR Ca2+ assay. […] NK1 stably expressing cell were maintained in DMEM containing 10% (v/v) FBS, 100 units ml^−1 penicillin G and 100 μg ml^−1 streptomycin. On the day of assay, cells were plated into Poly-L-Lysine (PLL) coated 384-well black clear bottom cell culture plates with DMEM buffer, which is composed of 1% (v/v) dialyzed FBS, 100 units ml^−1 penicillin G, 100 μg ml^−1 streptomycin with 1 μg ml^−1 tetracycline at density of 20,000 cells in 40 μl per well for overnight. For NK1 stable cells, the same media used for MRGPRX2 or MRGPRX4 cells except the tetracycline were used. Medium was removed and cells were incubated with 20 μl of calcium dye (FLIPR Calcium 4 Assay Kit; Molecular Devices) diluted in assay buffer (1×HBSS, 2.5 mM probenecid, and 20 mM HEPES, pH 7.4) for 1 hour at 37° C. and 20 min at room temperature in the dark. To measure agonist activity of receptors, drug plates were prepared with increasing concentrations of test compound at 3 times the desired final concentration using drug buffer (1×HBSS, 20 mM HEPES, 0.1% (w/v) BSA, pH 7.4). Once loaded in FLIPR (Molecular Devices), basal fluorescence was measured for 10 s, then 10 μl of test compounds were added followed by continued fluorescence measurement for an additional 120 s. When measuring antagonist activity of receptors, drug plates were prepared with increasing concentrations of test compound at 4 times the desired final concentration, added as above for their potential effects on basal levels for 120 s first, followed by a 15 min incubation before addition of 10 μl of 4× of reference agonist at final concentration corresponding to the EC80. Data were normalized to % reference compound stimulation and analyzed using nonlinear regression “log(agonist) vs. response” in GraphPad Prism 9.0.

NK1R = NK1R (Homo sapiens (Human), UniProt P25103); assay: FLIPR Ca2+ assay, antagonist mode, NK1R stable cell line; type: cell-based
Protocol: (§1) FLIPR Ca2+ assay. Tetracycline inducible MRGPRX2 or MRGPRX4 stable cells [Flp-In™ T-REx™-293 cell which is derived from HEK 293 cells (ATCC, CRL 1573)] were maintained in DMEM containing 10% (v/v) FBS, 100 units ml^−1 penicillin G, 100 μg ml^−1 streptomycin, 100 μg ml^−1 hygromycin B, and 15 μg ml^−1 blasticidin ^16. NK1 stably expressing cell were maintained in DMEM containing 10% (v/v) FBS, 100 units ml^−1 penicillin G and 100 μg ml^−1 streptomycin. On the day of assay, cells were plated into Poly-L-Lysine (PLL) coated 384-well black clear bottom cell culture plates with DMEM buffer, which is composed of 1% (v/v) dialyzed FBS, 100 units ml^−1 penicillin G, 100 μg ml^−1 streptomycin with 1 μg ml^−1 tetracycline at density of 20,000 cells in 40 μl per well for overnight. For NK1 stable cells, the same media used for MRGPRX2 or MRGPRX4 cells except the tetracycline were used. […] Once loaded in FLIPR (Molecular Devices), basal fluorescence was measured for 10 s, then 10 μl of test compounds were added followed by continued fluorescence measurement for an additional 120 s. […] Data were normalized to % reference compound stimulation and analyzed using nonlinear regression “log(agonist) vs. response” in GraphPad Prism 9.0.

[2] = tested on: a number of GPCRs, ion channels and transporters; assay: Off-target profiling / inhibition screen (NIMH PDSP binding assays); settings: screened at 10 μM
Protocol: Inhibition screen. Binding assays were performed by the NIMH Psychoactive Drug Screening program as described previously (PMID: 23235874). Detailed binding assay protocols are available at: https://pdspdb.unc.edu/pdspWeb/content/UNC-CH %20Protocol %20Book.pdf.

MRGPRX4 = MRGPRX4 (Homo sapiens (Human), UniProt Q96LA9); assay: FLIPR Ca2+ assay, antagonist mode, tetracycline-inducible MRGPRX4 stable cell line; type: cell-based
Protocol: as §1

MRGPRX2 [3] = target: T1, MRGPRX2; assay: BRET1 recruitment assay (inverse agonist activity, miniGq recruitment) in HEK293T cells; type: cell-based
Protocol: Bioluminescence resonance energy transfer assay 1 (BRET1). To test the inverse agonist activities of MRGPRX2 compounds, BRET1 recruitment assay was performed. Human MRGPRX2 containing C-terminal Renilla luciferase (RLuc8), and Venus-tagged miniGq were co-transfected at a ratio of 1:5 using HEK293T cells. After 20-24 hours, transfected cells were plated into poly-L-lysine coated 96-well clear bottom white plate in plating media (DMEM+1% (v/v) dialyzed FBS). The next day, media was decanted and cells were washed once with 60 μl drug buffer (1×HBSS, 20 mM HEPES, 0.1% (w/v) BSA, pH 7.4), then 60 μl drug buffer containing 5 μM coelenterazine h (Promega) was added to each well and incubate for 5 min. Cells were then treated with 30 μl of 3× designated drug for an additional 5 minutes. After drug incubation, plates were read in an LB940 Mithras plate reader (Berthold Technologies) for both luminescence at 485 nm and fluorescent eYFP emission at 530 nm for 1 s per well. The ratio of eYFP/RLuc was calculated per well and the net BRET ratio was calculated and fitted using “log(inhibitor) vs. response” in GraphPad Prism 9.0 to represent the inhibitory effect of MRGPX2 compound.

LAD2 human mast cells = assay: Human mast cell activation (beta-hexosaminidase release) assay; type: cell-based; settings: (R)-ZINC-3573 stimulation; listed as C9
Protocol: Human Mast Cell activation (Beta-hexosaminidase release) Assay. Mast cell activation was assessed by measuring extracellular release of Beta-hexosaminidase, a major component of mast cell granules. To assay human mast cell Beta-hexosaminidase release, LAD2 human mast cells were seeded at a concentration of 2*10^5 cells per well in 96-well plates in Tyrode's buffer (100 μl). 15 minutes prior to activation, varying concentrations of either C7 or C9 were added to the wells to reach a total volume of 190 μl. For activation, (R)-ZINC-3573 (10 μl, 2 μM) was added to each well for 30 minutes at 37° C. Separate wells received either buffer (buffer control), 0.1% Triton X-100 (total beta-hexosaminidase control), or (R)-ZINC-3573 alone (positive control) for the same amount of time. 30 μl of the supernatant were then removed from each well and added to 10 μl of NAG substrate solution (p-nitrophenyl-N-acetyl-β-D-glucosaminide) and allowed to incubate for 1 hour at 37° C. Carbonate buffer (100 μl) was then added to each well and the absorbance of each well was immediately measured at 405 nm using a plate reader. Percent degranulation (%) was calculated as follows: ((Treatment release−buffer release)/(total release−buffer release))*100. Samples were run in quadruplicate and each compound was assayed in at least two independent experiments. Data were analyzed using GraphPad Prism 9.0.

[4] = Table 1, read-out: pKi (calc.) (converted)
[5] = antagonist activity at MRGPRX2, EC80 (R)-ZINC-3573 (3 μM), read-out: Ki value

T1 sequence (Q96LB1 whole entry): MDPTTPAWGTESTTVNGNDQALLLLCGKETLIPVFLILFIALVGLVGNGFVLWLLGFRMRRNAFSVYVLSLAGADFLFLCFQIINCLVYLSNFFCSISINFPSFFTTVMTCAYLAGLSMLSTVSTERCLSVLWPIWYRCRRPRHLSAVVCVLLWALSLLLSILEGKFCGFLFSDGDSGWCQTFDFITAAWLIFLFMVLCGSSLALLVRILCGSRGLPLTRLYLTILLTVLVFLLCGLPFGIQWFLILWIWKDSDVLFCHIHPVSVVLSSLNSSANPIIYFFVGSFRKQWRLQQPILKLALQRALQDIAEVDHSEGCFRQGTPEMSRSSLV
Sequence of NK1R (P25103 whole entry, species assumed): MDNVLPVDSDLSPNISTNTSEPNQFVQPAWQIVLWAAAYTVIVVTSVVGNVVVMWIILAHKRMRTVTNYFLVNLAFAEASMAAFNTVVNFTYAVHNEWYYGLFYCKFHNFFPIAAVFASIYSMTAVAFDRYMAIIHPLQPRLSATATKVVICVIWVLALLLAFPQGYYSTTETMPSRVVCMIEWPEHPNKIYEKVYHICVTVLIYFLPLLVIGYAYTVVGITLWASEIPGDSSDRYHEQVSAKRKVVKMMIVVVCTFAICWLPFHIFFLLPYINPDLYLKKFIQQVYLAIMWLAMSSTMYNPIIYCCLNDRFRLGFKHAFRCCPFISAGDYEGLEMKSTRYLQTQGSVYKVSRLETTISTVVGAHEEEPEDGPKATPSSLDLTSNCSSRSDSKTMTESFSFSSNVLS
Sequence of MRGPRX4 (Q96LA9 whole entry): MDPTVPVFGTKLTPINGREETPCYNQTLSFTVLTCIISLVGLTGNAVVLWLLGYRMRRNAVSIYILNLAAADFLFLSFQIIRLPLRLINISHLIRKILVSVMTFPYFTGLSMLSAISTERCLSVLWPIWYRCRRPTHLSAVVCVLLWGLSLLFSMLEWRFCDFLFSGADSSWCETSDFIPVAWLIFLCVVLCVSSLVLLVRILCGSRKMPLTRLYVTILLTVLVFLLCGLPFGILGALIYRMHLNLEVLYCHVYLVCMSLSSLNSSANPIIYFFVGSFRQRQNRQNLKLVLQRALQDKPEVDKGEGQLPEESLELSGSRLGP

Compound	pKi (calc.) (MRGPRX2 [1]; Table 1)	Ki (MRGPRX2 [1]; Table 1, read-out: Ki)	further results
O=c1c2ccccc2[nH]c(=S)n1Cc1cccs1 [Compound C9-8]	6.29 ± 0.23	514 nM	
O=c1c2ccccc2[nH]c(=S)n1Cc1ccccn1 [ZINC16991592, reference compound]		2190 nM	Ki (MRGPRX2 [1]; [4]): 2340 nM; Ki (MRGPRX2 [1]; [5]): 189 nM
O=c1c2ccccc2[nH]c(=S)n1Cc1ccsc1 [Compound C9-9]	7.32 ± 0.04	47 nM	
O=c1c2ccccc2[nH]c(=S)n1CCc1ccccn1 [Compound 7]	5.2	6520 nM	antagonist activity for MRGPRX2 (MRGPRX2 [1]): inactive control
O=c1c2ccccc2[nH]c(=S)n1Cc1ccon1 [Compound C9-1]	6.76 ± 0.21	172 nM	
Cn1ccnc1Cn1c(=S)[nH]c2ccccc2c1=O [Compound 6]	6.5	318 nM	
O=c1c2ccccc2[nH]c(=S)n1Cc1ccc(Cl)cc1 [Compound C9-3]	5.75 ± 0.16	1780 nM	
O=c1c2ccccc2[nH]c(=S)n1Cc1ccco1 [Compound C9-6]	7.42 ± 0.06	38 nM	antagonist activity towards NK1R (NK1R): no antagonist activity; off-target activity [2]: no significant activity; antagonist activity towards MRGPRX4 (MRGPRX4): no antagonist activity; inverse agonist activity, inhibition of basal recruitment of Gq by MRGPRX2 (MRGPRX2 [3]): inhibit the basal recruitment of Gq by MRGPRX2; also recorded: inverse agonists; inhibition of substance P stimulated MRGPRX2 activation (MRGPRX2 [1]): inhibit substance P stimulated MRGPRX2 activation; also recorded: could inhibit MRGPRX2 activation; Ki (MRGPRX2 [1]; [5]): 58 nM; antagonist activity for MRGPRX2 (MRGPRX2 [1]): improved antagonist activity; also recorded: most potent and selective antagonist
COc1ccccc1Cn1c(=S)[nH]c2ccccc2c1=O [Compound C9-5]	7.01 ± 0.07	98 nM	
O=c1c2ccccc2[nH]c(=S)n1Cc1ccccc1Cl [Compound C9-4]	5.93 ± 0.3	1160 nM	
Cc1csc(Cn2c(=S)[nH]c3ccccc3c2=O)n1 [Compound C9-7]	6.03 ± 0.08	929 nM	
COc1cccnc1Cn1c(=S)[nH]c2ccccc2c1=O [Compound 8]		57 nM	Ki (MRGPRX2 [1]; [4]): 63.1 nM
O=c1c2ccccc2[nH]c(=S)n1Cc1nccs1 [Compound 9]	7.5	32 nM	inhibition of (R)-ZINC-3573-stimulated LAD2 human mast cell degranulation (LAD2 human mast cells): inhibit MRGPRX2 mediated LAD2 human mast activation; also recorded: inhibit (R)-ZINC-3573-stimulated LAD2 human mast cell degranulation in a concentration-dependent manner; antagonist activity towards NK1R (NK1R): no antagonist activity; off-target activity [2]: no significant activity; antagonist activity towards MRGPRX4 (MRGPRX4): no antagonist activity; inverse agonist activity, inhibition of basal recruitment of Gq by MRGPRX2 (MRGPRX2 [3]; listed as C9): inhibit the basal recruitment of Gq by MRGPRX2; also recorded: inverse agonists; inhibition of substance P stimulated MRGPRX2 activation (MRGPRX2 [1]; listed as C9): inhibit substance P stimulated MRGPRX2 activation; also recorded: could inhibit MRGPRX2 activation; Ki (MRGPRX2 [1]; [5]): 43 nM; antagonist activity for MRGPRX2 (MRGPRX2 [1]; listed as C9): improved antagonist activity; also recorded: most potent and selective antagonist
O=c1c2ccccc2[nH]c(=S)n1Cc1ccccc1 [Compound 1]		57 nM	Ki (MRGPRX2 [1]; [4]): 63.1 nM
O=c1c2cc(F)ccc2[nH]c(=S)n1Cc1ccccn1 [Compound 14]	5.6	2520 nM	
O=c1c2ccccc2[nH]c(=S)n1Cc1ccon1 [Compound 5]		895 nM	Ki (MRGPRX2 [1]; [4]): 1000 nM
